Among the data in ChEMBL document CHEMBL1156392, “New sesquiterpene derivatives from the red alga Laurencia scoparia. Isolation, structure determination, and anthelmintic activity” (J Nat Prod, 2001) are Activity and EC50 values, retold here.

Where only a bound is given, the exact number is not on record here.

For orientation: EC50 means the concentration that produces a half-maximal response. Read a high EC50 as a need for much substance.

One experiment concerns Nippostrongylus brasiliensis. Nature of the experiment: Anthelmintic activity against Nippostrongylus brasiliensis. Format: functional, organism-based.
Conditions: not given
In turn, `C=C1C[C@@H](O)[C@@H](Br)C(C)(C)[C@@]12C=C/C(=C/Br)CC2` gave an Activity of less than 100 µM.
As to `C=C1C[C@@H](O)[C@@H](Br)C(C)(C)[C@@]12C=CC(=O)CC2`, the Activity is less than 100 µM.
Turning to `C=C1C[C@@H](O)[C@@H](Br)C(C)(C)[C@@]12C=C/C(=C\Br)CC2`, the Activity is less than 100 µM.
The compound `CCCCCCCCCCCCCC/C=C(/C=O)CCCCCCCCCCCCC` registered an Activity of less than 100 µM.
On the same count and under the same terms, the figure for `C=C1C[C@@H](O)[C@H](Br)C(C)(C)[C@]12CC=C(C)CC2` is less than 100 µM; for `CC1=CC(=O)CC(C)(C)[C@@]12C=CC(=O)CC2` it is less than 100 µM.
Same read-out and setting: with `C=C1CC[C@@H](Br)C(C)(C)[C@]12CC[C@](C)(Br)[C@@H](Cl)C2` the figure was less than 100 µM; with `C=C1C[C@H](O)[C@@H](Br)C(C)(C)[C@@]12C=C[C@](C)(O)CC2` [ISORIGIDOL], less than 100 µM.

The same experiment, now with this note: Nippostrongylus brasiliensis.
Consider `CCCSc1ccc2[nH]c(NC(=O)OC)nc2c1` [ALBENDAZOLE], for which the EC50 was found to be 0.34 µM.
Same read-out and setting: the figure for `COC(=O)Nc1nc2cc(Sc3ccccc3)ccc2[nH]1` [FENBENDAZOLE] is 0.12 µM; for `c1ccc([C@H]2CN3CCSC3=N2)cc1` [LEVAMISOLE] it is 0.21 µM.
